Test results reported in US20040209900A1, “Treatment of lipodystrophy (lipid redistribution syndrome)” (priority 2003, published 2004).

Test system: lipodystrophy
Experiment: Observation of lipodystrophy signs and symptoms in patients using pentoxifylline for claudication
Type: in vivo, human
Source text: It is believed that 80-85% of patients respond favorably with amelioration some or all of their symptoms.

[1] = diabetic HIV positive patients using pentoxifylline for claudication

Q: How did the central fat deposition [1] turn out when `CC(=O)CCCCn1c(=O)c2c(ncn2C)n(C)c1=O` [pentoxifylline] was run?
A: Its central fat deposition is “resolved or remitted”.

Q: And the facial lines [1]?
A: The facial lines was “decreased and/or disappeared”.

Q: What about the leg vein prominence [1] of the same compound?
A: The leg vein prominence was “diminished or disappeared”.

Q: What about the “signs and symptoms of lipodystrophy” value (diabetic HIV positive patients with peripheral vascular disease and intermittent claudication, using pentoxifylline for claudication) of the same compound?
A: Its value is “disappeared or were ameliorated”.

Q: What about the “patients responding favorably with amelioration of some or all of their symptoms” value (patients using pentoxifylline, stated as 'It is believed') of the same compound?
A: The value was 80-85%.
